Experimental data from patent US20230111310A1, “CARBOXYLIC ACID DERIVATIVE-SUBSTITUTED IMINO ARYL COMPOUND, PREPARATION METHOD THEREFOR, HERBICIDAL COMPOSITION AND USE THEREOF” (Qingdao Kingagroot Chemical Compound Co., Ltd., priority 2020, published 2023).

Experiments:
Format in all cases: in vivo
Abutilon theophrasti [1] = experiment: Weeding effect in post-emergence stage; conditions: fresh weight control rate level
Method in brief: (§1)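 Post-emergence spray tower; 2-3 leaf plants (2 wk after sowing, soil pots, greenhouse). Formulation: acetone, Tween 80, methyl oleate EC 1.5 liter/ha as synergist, water. Rates 500–7.5 g/ha. Growth control rate read at 3 wk; n=3, averaged.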

Alopecurus japonicus = experiment: Weeding effect in post-emergence stage; conditions: fresh weight control rate level
Method in brief: as §1

Digitaria sanguinalis = experiment: Weeding effect in post-emergence stage; conditions: fresh weight control rate level
Method in brief: as §1

Eleusine indica = experiment: Weeding effect in post-emergence stage; conditions: fresh weight control rate level
Method in brief: as §1

Setaria viridis [2] = experiment: Weeding effect in post-emergence stage; conditions: fresh weight control rate level
Method in brief: as §1

Echinochloa crusgalli = experiment: Weeding effect in post-emergence stage; conditions: fresh weight control rate level
Method in brief: as §1

Abutilon theophrasti [3] = experiment: Weeding effect in pre-emergence stage; conditions: 30 g/ha, 4 weeks
Method in brief: (§2)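 Pots were kept in the greenhouse for 4 weeks and then rated for growth control on activity-level criteria. Spraying took place immediately after sowing at application rates of 500 to 7.5 g/ha, using an acetone/tween 80 formulation diluted with water, on seeds under 0.5-2 cm of soil.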

Amaranthus retroflexus = experiment: Weeding effect in pre-emergence stage; conditions: 30 g/ha, 4 weeks
Method in brief: as §2

Capsella bursa-pastoris = experiment: Weeding effect in pre-emergence stage; conditions: 30 g/ha, 4 weeks
Method in brief: as §2

Descurainia sophia = experiment: Weeding effect in pre-emergence stage; conditions: 30 g/ha, 4 weeks
Method in brief: as §2

Setaria viridis [4] = experiment: Weeding effect in pre-emergence stage; conditions: 30 g/ha, 4 weeks
Method in brief: as §2

Veronica didyma Tenore = experiment: Weeding effect in pre-emergence stage; conditions: 30 g/ha, 4 weeks
Method in brief: as §2

Peanut = experiment: Pre-emergence stage, crop selectivity; conditions: 30 g/ha, 4 weeks
Method in brief: as §2

Soybeans = experiment: Pre-emergence stage, crop selectivity; conditions: 30 g/ha, 4 weeks
Method in brief: as §2

corn = experiment: Pre-emergence stage, crop selectivity; conditions: 30 g/ha, 4 weeks
Method in brief: as §2

cotton = experiment: Pre-emergence stage, crop selectivity; conditions: 30 g/ha, 4 weeks
Method in brief: as §2

Leptochloa chinensis = experiment: Weed control effect evaluation in rice field; conditions: rice field pot, 30 g/ha, 14 days after treatment
Excerpt: (§3) The activity level criteria for plant damage (i.e., growth control rate) are as follows:
(§4) Rice field soil was loaded into a 1/1,000,000 ha pot. The seeds of Echinochloa crusgalli. Scirpus juncoides. Bidens tripartita L., Monochoria vaginalis, and Leptochloa chinensis were sowed and gently covered with soil, then left to stand still in greenhouse in the state of 0.5-1 cm of water storage. The tuber of Sagittaria trifolia was planted in the next day or 2 days later. It was kept at 3-4 cm of water storage thereafter. The weeds were treated by dripping the WP or SC water diluents prepared according to the common preparation method of the compounds of the present invention with pipette homogeneously to achieve specified effective amount when Echinochloa crusgalli. Scirpus juncoides, Bidens tripartita L., Monochoria vaginalis, and Leptochloa chinensis reached 0.5 leaf stage and Sagittaria trifolia reached the time point of primary leaf stage.
(§5) The fertility condition of Echinochloa crusgalli. Scirpus juncoides. Bidens tripartita L., Monochoria vaginalis, Leptochloa chinensis and Sagittaria trifolia 14 days after the treatment of the compound of the invention and the fertility condition of rice 21 days after the treatment of the compound of the invention respectively with the naked eye. Evaluate the weed control effect with the above activity standard level. Many compounds show excellent activity and selectivity.

Monochoria vaginalis = experiment: Weed control effect evaluation in rice field; conditions: rice field pot, 30 g/ha, 14 days after treatment
Excerpt: as §3, §4, §5

Scirpus juncoides = experiment: Weed control effect evaluation in rice field; conditions: rice field pot, 30 g/ha, 14 days after treatment
Excerpt: as §3, §4, §5

Rice = experiment: Transplanted rice safety evaluation; conditions: transplanted japonica rice, 30 g/ha, 21 days after treatment
Experimental: as §3
In addition, the rice field soil that loaded into the 1/1,000,000 ha pot was leveled to keep water storage at 3-4 cm depth. The 5 leaf stage rice (japonica rice) was transplanted at 3 cm of transplanting depth the next day. The compound of the present invention was treated by the same way after 5 days of transplantation.
as §5

Row | SMILES | activity level (growth control rate) Abutilon theophrasti (Abutilon theophrasti [3]) | activity level (growth control rate) Amaranthus retroflexus (Amaranthus retroflexus) | activity level (growth control rate) Capsella bursa-pastoris (Capsella bursa-pastoris) | activity level (growth control rate) Descurainia sophia (Descurainia sophia) | activity level (growth control rate) Setaria viridis (Setaria viridis [4]) | activity level (growth control rate) Veronica didyma Tenore (Veronica didyma Tenore) | plant damage level Peanut (Peanut) | plant damage level Soybeans (Soybeans) | plant damage level Corn (corn) | plant damage level Cotton (cotton) | activity level (weed control effect) Leptochloa chinensis (Leptochloa chinensis) | activity level (weed control effect) Monochoria vaginalis (Monochoria vaginalis) | activity level (weed control effect) Scirpus juncoides (Scirpus juncoides) | plant damage level Rice (Rice) | also measured
1 | CC(C)N(C)S(=O)(=O)NC(=O)[C@@H](C)O/N=C/c1cc(-n2c(=O)cc(C(F)(F)F)n(C)c2=O)c(F)cc1Cl [421(R)] | 5 (Level 5: growth control rate is above 85%) | 5 (Level 5: growth control rate is above 85%) | 5 (Level 5: growth control rate is above 85%) | 5 (Level 5: growth control rate is above 85%) | 5 (Level 5: growth control rate is above 85%) | 5 (Level 5: growth control rate is above 85%) | 0 (Level 0: growth control rate is less than 5%) | 0 (Level 0: growth control rate is less than 5%) | 0 (Level 0: growth control rate is less than 5%) | 0 (Level 0: growth control rate is less than 5%) | 5 (Level 5: growth control rate is above 85%) | 5 (Level 5: growth control rate is above 85%) | 5 (Level 5: growth control rate is above 85%) | 0 (Level 0: growth control rate is less than 5%) | Weeding effect in post-emergence stage, Abutilon theophrasti (level) (Abutilon theophrasti [1]; Dose 15 g/ha): 5 (Level 5: growth control rate is above 85%); Weeding effect in post-emergence stage, Alopecurus japonicus (level) (Alopecurus japonicus; Dose 15 g/ha): 5 (Level 5: growth control rate is above 85%); Weeding effect in post-emergence stage, Digitaria sanguinalis (level) (Digitaria sanguinalis; Dose 15 g/ha): 5 (Level 5: growth control rate is above 85%); Weeding effect in post-emergence stage, Eleusine indica (level) (Eleusine indica; Dose 15 g/ha): 5 (Level 5: growth control rate is above 85%); Weeding effect in post-emergence stage, Setaria viridis (level) (Setaria viridis [2]; Dose 15 g/ha): 5 (Level 5: growth control rate is above 85%); Weeding effect in post-emergence stage, Echinochloa crusgalli (level) (Echinochloa crusgalli; Dose 15 g/ha): 5 (Level 5: growth control rate is above 85%)
2 | C=CCOC(=O)C(C)(C)O/N=C/c1cc(-n2c(=O)cc(C(F)(F)F)n(C)c2=O)c(F)cc1Cl [Compound 434] | 5 (Level 5: growth control rate is above 85%) | 5 (Level 5: growth control rate is above 85%) | 5 (Level 5: growth control rate is above 85%) | 5 (Level 5: growth control rate is above 85%) | 5 (Level 5: growth control rate is above 85%) | 5 (Level 5: growth control rate is above 85%) | 0 (Level 0: growth control rate is less than 5%) | 0 (Level 0: growth control rate is less than 5%) | 0 (Level 0: growth control rate is less than 5%) | 0 (Level 0: growth control rate is less than 5%) | 5 (Level 5: growth control rate is above 85%) | 5 (Level 5: growth control rate is above 85%) | 5 (Level 5: growth control rate is above 85%) | 0 (Level 0: growth control rate is less than 5%) | Weeding effect in post-emergence stage, Abutilon theophrasti (level) (Abutilon theophrasti [1]; Dose 30 g/ha): 5 (Level 5: growth control rate is above 85%); Weeding effect in post-emergence stage, Alopecurus japonicus (level) (Alopecurus japonicus; Dose 30 g/ha): 5 (Level 5: growth control rate is above 85%); Weeding effect in post-emergence stage, Digitaria sanguinalis (level) (Digitaria sanguinalis; Dose 30 g/ha): 5 (Level 5: growth control rate is above 85%); Weeding effect in post-emergence stage, Eleusine indica (level) (Eleusine indica; Dose 30 g/ha): 5 (Level 5: growth control rate is above 85%); Weeding effect in post-emergence stage, Setaria viridis (level) (Setaria viridis [2]; Dose 30 g/ha): 5 (Level 5: growth control rate is above 85%); Weeding effect in post-emergence stage, Echinochloa crusgalli (level) (Echinochloa crusgalli; Dose 30 g/ha): 5 (Level 5: growth control rate is above 85%)
